Data on 23 compounds can be found in patent US9650395B2, “Antibacterial compounds and methods for use” (PTC Therapeutics, Inc., priority 2011, dated 2017).

For orientation: MIC means the smallest concentration in the dilution series that meets the test's criterion for growth inhibition.

In brackets after ≈: the same amount, converted by molar mass. A value given as a limit tells only on which side of the number the result lay.

The test system of assay [1] is super sensitive Gram-negative Escherichia coli (E. coli) BAS849. The assay can be described thus: Antibacterial activity, microbroth dilution MIC, E. coli BAS849. It counts as cell-based. The settings on record: Escherichia coli; E. coli BAS849, microbroth dilution; read-out: MIC, BAS849. (In broth dilution the organism is exposed to a series of concentrations in liquid medium.)

Assay [2] has as its system control Gram-negative E. coli 25922 strain. Kind of assay: Antibacterial activity, microbroth dilution MIC, E. coli 25922. Particulars: Escherichia coli; E. coli 25922, microbroth dilution; read-out: MIC, 25922. The assay is classed as cell-based, Escherichia coli.
In assay [3] the test system is Gram-positive Staphylococcus aureus (S. aureus) 29213. The assay can be described thus: Antibacterial activity, microbroth dilution MIC, S. aureus 29213. It counts as cell-based. The settings on record: Staphylococcus aureus; S. aureus 29213, microbroth dilution; read-out: MIC, 29213.

With `O=C(O)c1cc(C(=O)O)c(=O)[nH]c1-c1ccc(F)cc1` [Cpd 10, 6-(4-fluorophenyl)-2-oxo-1,2-dihydropyridine-3,5-dicarboxylic acid], the MIC in assay [1], in assay [2] and in assay [3] was 12.5 to 150 µg/mL (≈ 45.1 to 541 µM) each time.

On to `CCc1cc(C(=O)O)c(=O)[nH]c1-c1ccc(C#N)cc1` [Cpd 15, 6-(4-cyanophenyl)-5-ethyl-2-oxo-1,2-dihydropyridine-3-carboxylic acid], for which the minimal inhibitory concentration (MIC) in assay [1], in assay [2] and in assay [3] was 12.5 to 150 µg/mL (≈ 46.6 to 559 µM) each time.

Turning to `CCc1cc(C(=O)O)c(=O)[nH]c1-c1cnc(N(C)C)nc1` [Cpd 19, 6-[2-(dimethylamino)pyrimidin-5-yl]-5-ethyl-2-oxo-1,2-dihydropyridine-3-carboxylic acid], the minimal inhibitory concentration (MIC) in assay [1], in assay [2] and in assay [3] was 12.5 to 150 µg/mL (≈ 43.4 to 520 µM) in each case.

Consider `O=C(O)c1c(O)cc(-c2ccc(N3CCCC3)cc2)[nH]c1=O` [Cpd 21, 4-hydroxy-2-oxo-6-[4-(pyrrolidin-1-yl)phenyl]-1,2-dihydropyridine-3-carboxylic acid], for which the MIC in assay [1] was 3.5 to 12.5 µg/mL (≈ 11.7 to 41.6 µM); in assay [2] it was 12.5 to 150 µg/mL (≈ 41.6 to 499 µM); in assay [3] it was 3.5 to 12.5 µg/mL (≈ 11.7 to 41.6 µM).

Consider `CCc1cc(C(=O)O)c(=O)[nH]c1-c1ccc(-c2nnn[nH]2)cc1` [Cpd 23, 5-ethyl-2-oxo-6-[4-(1H-tetrazol-5-yl)phenyl]-1,2-dihydropyridine-3-carboxylic acid], for which the MIC in assay [1], in assay [2] and in assay [3] was 12.5 to 150 µg/mL (≈ 40.2 to 482 µM) in each case.

In the case of `CCc1cc(C(=O)O)c(=O)[nH]c1-c1ccc(F)cc1` [Cpd 26, 5-ethyl-6-(4-fluorophenyl)-2-oxo-1,2-dihydropyridine-3-carboxylic acid], the minimal inhibitory concentration (MIC) in assay [1], in assay [2] and in assay [3] was 12.5 to 150 µg/mL (≈ 47.8 to 574 µM) each time.

`CCc1cc(C(=O)O)c(=O)[nH]c1-c1ccc(C)cc1` [Cpd 27, 5-ethyl-6-(4-methylphenyl)-2-oxo-1,2-dihydropyridine-3-carboxylic acid]: the MIC in assay [1] was under 1 µg/mL; in assay [2] it was 12.5 to 150 µg/mL (≈ 48.6 to 583 µM); in assay [3] it was 12.5 to 150 µg/mL (≈ 48.6 to 583 µM).

`CCc1c(-c2ccc(C)cc2)[nH]c(=O)c(C(=O)O)c1O` [Cpd 28, 5-ethyl-4-hydroxy-6-(4-methylphenyl)-2-oxo-1,2-dihydropyridine-3-carboxylic acid]: the minimal inhibitory concentration (MIC) in assay [1] is under 1 µg/mL; in assay [2], 12.5 to 150 µg/mL (≈ 45.7 to 549 µM); in assay [3], 3.5 to 12.5 µg/mL (≈ 12.8 to 45.7 µM).

As for `CCc1c(-c2ccccc2N2CCCCC2)[nH]c(=O)c(C(=O)O)c1O` [Cpd 29, 5-ethyl-4-hydroxy-2-oxo-6-[2-(piperidin-1-yl)phenyl]-1,2-dihydropyridine-3-carboxylic acid], the minimal inhibitory concentration (MIC) in assay [1] fell in the range of 1 to 3.5 µg/mL (≈ 2.92 to 10.2 µM); in assay [2] it was 12.5 to 150 µg/mL (≈ 36.5 to 438 µM); in assay [3], 1 to 3.5 µg/mL (≈ 2.92 to 10.2 µM).

Take `CCc1cc(C(=O)O)c(=O)[nH]c1-c1ccccc1N1CCCCC1` [Cpd 31, 5-ethyl-2-oxo-6-[2-(piperidin-1-yl)phenyl]-1,2-dihydropyridine-3-carboxylic acid]: the minimal inhibitory concentration (MIC) in assay [1], in assay [2] and in assay [3] was 12.5 to 150 µg/mL (≈ 38.3 to 460 µM) each time.

For `CCc1c(-c2ccc(OC)cc2C)[nH]c(=O)c(C(=O)O)c1O` [Cpd 32, 5-ethyl-4-hydroxy-6-(4-methoxy-2-methylphenyl)-2-oxo-1,2-dihydropyridine-3-carboxylic acid], the figures for the MIC in assay [1], in assay [2] and in assay [3] were 3.5 to 12.5 µg/mL (≈ 11.5 to 41.2 µM), 12.5 to 150 µg/mL (≈ 41.2 to 495 µM) and 3.5 to 12.5 µg/mL (≈ 11.5 to 41.2 µM), respectively.

As to `CCc1cc(C(=O)O)c(=O)[nH]c1-c1ccc(OC)cc1C` [Cpd 33, 5-ethyl-6-(4-methoxy-2-methylphenyl)-2-oxo-1,2-dihydropyridine-3-carboxylic acid], the MIC in assay [1], in assay [2] and in assay [3] was 12.5 to 150 µg/mL (≈ 43.5 to 522 µM) throughout.

`CCc1cc(C(=O)O)c(=O)[nH]c1-c1ccc(OC)cc1OC` [Cpd 34, 6-(2,4-dimethoxyphenyl)-5-ethyl-2-oxo-1,2-dihydropyridine-3-carboxylic acid]: the MIC in assay [1], in assay [2] and in assay [3] was 12.5 to 150 µg/mL (≈ 41.2 to 495 µM) in each case.

Consider `CCc1cc(C(=O)O)c(=O)[nH]c1-c1ccc(OC)cc1N1CCCC1` [Cpd 35, 5-ethyl-6-[4-methoxy-2-(pyrrolidin-1-yl)phenyl]-2-oxo-1,2-dihydropyridine-3-carboxylic acid], for which the minimal inhibitory concentration (MIC) in assay [1], in assay [2] and in assay [3] was 12.5 to 150 µg/mL (≈ 36.5 to 438 µM) throughout.

On to `CCc1c(-c2ccc(OC)cc2OC)[nH]c(=O)c(C(=O)O)c1O` [Cpd 36, 6-(2,4-dimethoxyphenyl)-5-ethyl-4-hydroxy-2-oxo-1,2-dihydropyridine-3-carboxylic acid], for which the MIC was in the range of 3.5 to 12.5 µg/mL (≈ 11 to 39.1 µM) in assay [1], 12.5 to 150 µg/mL (≈ 39.1 to 470 µM) in assay [2] and 12.5 to 150 µg/mL (≈ 39.1 to 470 µM) in assay [3].

On to `CCc1cc(C(=O)O)c(=O)[nH]c1-c1ccc(N2CCCC2)cc1C` [Cpd 37, 5-ethyl-6-[2-methyl-4-(pyrrolidin-1-yl)phenyl]-2-oxo-1,2-dihydropyridine-3-carboxylic acid], for which the MIC in assay [1], in assay [2] and in assay [3] was 12.5 to 150 µg/mL (≈ 38.3 to 460 µM) throughout.

Take `CCc1c(-c2ccc(N3CCCC3)cc2C)[nH]c(=O)c(C(=O)O)c1O` [Cpd 39, 5-ethyl-4-hydroxy-6-[2-methyl-4-(pyrrolidin-1-yl)phenyl]-2-oxo-1,2-dihydropyridine-3-carboxylic acid]: the MIC in assay [1] lay in the range of 3.5 to 12.5 µg/mL (≈ 10.2 to 36.5 µM); in assay [2], 12.5 to 150 µg/mL (≈ 36.5 to 438 µM); in assay [3] it was 1 to 3.5 µg/mL (≈ 2.92 to 10.2 µM).

With `CCc1cc(C(=O)O)c(=O)[nH]c1-c1ccc(OC)cc1N(C)C` [Cpd 40, 6-[2-(dimethylamino)-4-methoxyphenyl]-5-ethyl-2-oxo-1,2-dihydropyridine-3-carboxylic acid], the minimum inhibitory concentration (MIC) in assay [1], in assay [2] and in assay [3] was 12.5 to 150 µg/mL (≈ 39.5 to 474 µM) in each case.

Take `CCc1cc(C(=O)O)c(=O)[nH]c1-c1ccc(N2CCCCC2)cc1F` [Cpd 43, 5-ethyl-6-[2-fluoro-4-(piperidin-1-yl)phenyl]-2-oxo-1,2-dihydropyridine-3-carboxylic acid]: the minimal inhibitory concentration (MIC) in assay [1] was under 1 µg/mL; in assay [2] it was 12.5 to 150 µg/mL (≈ 36.3 to 436 µM); in assay [3], 12.5 to 150 µg/mL (≈ 36.3 to 436 µM).

Regarding `CCc1cc(C(=O)O)c(=O)[nH]c1-c1ccccc1N1CCCC1` [Cpd 46, 5-ethyl-2-oxo-6-[2-(pyrrolidin-1-yl)phenyl]-1,2-dihydropyridine-3-carboxylic acid], the minimal inhibitory concentration (MIC) in assay [1], in assay [2] and in assay [3] was 12.5 to 150 µg/mL (≈ 40 to 480 µM) each time.

Consider `CCc1c(-c2ccccc2N2CCCC2)[nH]c(=O)c(C(=O)O)c1O` [Cpd 47, 5-ethyl-4-hydroxy-2-oxo-6-[2-(pyrrolidin-1-yl)phenyl]-1,2-dihydropyridine-3-carboxylic acid], for which the MIC lay in the range of 1 to 3.5 µg/mL (≈ 3.05 to 10.7 µM) in assay [1], 12.5 to 150 µg/mL (≈ 38.1 to 457 µM) in assay [2] and 3.5 to 12.5 µg/mL (≈ 10.7 to 38.1 µM) in assay [3].

Regarding `CCc1c(-c2ccc(OC)cc2N2CCCC2)[nH]c(=O)c(C(=O)O)c1O` [Cpd 48, 5-ethyl-4-hydroxy-6-[4-methoxy-2-(pyrrolidin-1-yl)phenyl]-2-oxo-1,2-dihydropyridine-3-carboxylic acid], the MIC in assay [1] was 3.5 to 12.5 µg/mL (≈ 9.77 to 34.9 µM); in assay [2] it was 12.5 to 150 µg/mL (≈ 34.9 to 419 µM); in assay [3], 3.5 to 12.5 µg/mL (≈ 9.77 to 34.9 µM).

Turning to `CCc1c(-c2ccc(N3CCCCC3)cc2C)[nH]c(=O)c(C(=O)O)c1O` [Cpd 51, 5-ethyl-4-hydroxy-6-[2-methyl-4-(piperidin-1-yl)phenyl]-2-oxo-1,2-dihydropyridine-3-carboxylic acid], the minimal inhibitory concentration (MIC) in assay [1] was in the range of 3.5 to 12.5 µg/mL (≈ 9.82 to 35.1 µM); in assay [2] it was 12.5 to 150 µg/mL (≈ 35.1 to 421 µM); in assay [3] it was 3.5 to 12.5 µg/mL (≈ 9.82 to 35.1 µM).
